From patent US11739074B2, “Ras inhibitors” (Revolution Medicines, Inc., priority 2019, dated 2023)
Where two headings read alike, the source gives them in different places.

Key:
KRAS G12V = KRAS G12V (Homo sapiens, UniProt P01116+P62937, G12V); test: Ras-Raf disruption/FRET/MOA assay, KRAS G12V; format: biochemical
From the text: (§1) Disruption of B-Raf Ras-Binding Domain (BRAF^RBD) Interaction with K-Ras by Compounds of the Invention (Also Called a FRET Assay or an MOA Assay)
(§2) Note—The following protocol describes a procedure for monitoring disruption of K-Ras G12C (GMP-PNP) binding to BRAF^RBD by a compound of the invention. This protocol may also be executed substituting other Ras proteins or nucleotides, such as K-Ras G12D and K-Ras G13D.
(§3) The purpose of this biochemical assay was to measure the ability of test compounds to facilitate ternary complex formation between a nucleotide-loaded K-Ras isoform and Cyclophilin A; the resulting ternary complex disrupts binding to a BRAF^RBD construct, inhibiting K-Ras signaling through a RAF effector.
(§4) In assay buffer containing 25 mM HEPES pH 7.3, 0.002% Tween20, 0.1% BSA, 100 mM NaCl and 5 mM MgCl2, tagless Cyclophilin A, His6-K-Ras-GMPPNP, and GST-BRAF^RBD were combined in a 384-well assay plate at final concentrations of 25 μM, 12.5 nM, and 50 nM, respectively. Compound was present in plate wells as a 10-point 3-fold dilution series starting at a final concentration of 30 μM. After incubation at 25° C. for 3 hours, a mixture of anti-His Eu-W1024 and anti-GST allophycocyanin was then added to assay sample wells at final concentrations of 10 nM and 50 nM, respectively, and the reaction incubated for an additional 1.5 hours. […] Compounds that facilitate disruption of a K-Ras:RAF complex were identified as those eliciting a decrease in the TR-FRET ratio relative to DMSO control wells.

KRAS WT = KRAS WT (Homo sapiens, UniProt P01116+P62937); test: Ras-Raf disruption/FRET/MOA assay, KRAS WT; format: biochemical
From the text: as §1, §2, §3, §4

KRAS G12S = KRAS G12S (Homo sapiens, UniProt P01116+P62937, G12S); test: Ras-Raf disruption/FRET/MOA assay, KRAS G12S; format: biochemical
From the text: as §1, §2, §3, §4

NRAS G12C = molecular target: T1, NRAS G12C (Homo sapiens, UniProt P01111+P62937, G12C); test: Ras-Raf disruption/FRET/MOA assay, NRAS G12C; format: biochemical
T1 construct: His6
From the text: as §1, §2, §3, §4

KRAS G13C = KRAS G13C (Homo sapiens, UniProt P01116+P62937, G13C); test: Ras-Raf disruption/FRET/MOA assay, KRAS G13C; format: biochemical
From the text: as §1, §2, §3, §4

AsPC-1 (K-Ras G12D) [1] = test: CellTiter-Glo cell viability assay, AsPC-1; format: cell-based; settings: Homo sapiens, ASPC1, 120 h
Summary of the method: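 Test compounds were dispensed directly onto seeded cells, and on day 5 plates were brought to room temperature for about 30 minutes before CellTiter-Glo luminescence was read. Signals were expressed as percent of the mean DMSO control and fitted with a four-parameter logistic model.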

KRAS G12C = KRAS G12C (Homo sapiens, UniProt P01116+P62937, G12C); test: Ras-Raf disruption/FRET/MOA assay, KRAS G12C; format: biochemical
From the text: as §1, §2, §3, §4

AsPC-1 (K-Ras G12D) [2] = test: Potency assay: pERK in AsPC-1 cells; format: cell-based; settings: Homo sapiens
KRAS G13D = KRAS G13D (Homo sapiens, UniProt P01116+P62937, G13D); test: Ras-Raf disruption/FRET/MOA assay, KRAS G13D; format: biochemical
From the text: as §1, §2, §3, §4

KRAS G12D = KRAS G12D (Homo sapiens, UniProt P01116+P62937, G12D); test: Ras-Raf disruption/FRET/MOA assay, KRAS G12D; format: biochemical
From the text: as §1, §2, §3, §4

[3] = disruption of BRAF RBD binding, with Cyclophilin A, read-out: KRAS G12V FRET IC50
[4] = disruption of BRAF RBD binding, with Cyclophilin A, read-out: KRAS WT FRET IC50
[5] = disruption of BRAF RBD binding, with Cyclophilin A, read-out: KRAS G12S FRET IC50
[6] = NRAS G12C, read-out: NRAS G12C FRET data IC50
[7] = disruption of BRAF RBD binding, with Cyclophilin A, read-out: KRAS G13C FRET IC50
[8] = read-out: AsPC-1 Cell Viability IC50
[9] = disruption of BRAF RBD binding, with Cyclophilin A, read-out: KRAS G12C FRET IC50
[10] = ASPC1, read-out: pERK EC50 (AsPC-1 KRAS G12D)
[11] = disruption of BRAF RBD binding, with Cyclophilin A, read-out: KRAS G13D FRET IC50
[12] = disruption of BRAF RBD binding, with Cyclophilin A, read-out: KRAS G12D FRET IC50
[13] = AsPC-1, K-Ras G12D, 5-day treatment, read-out: AsPC-1 Cell Viability IC50
[14] = ASPC1, AsPC-1 cells, K-Ras G12D, read-out: pERK EC50 (AsPC-1 KRAS G12D)
[15] = NRAS G12C FRET data IC50, NRAS G12C
[16] = read-out: AsPC-1 Cell Viability IC50, AsPC-1, K-Ras G12D, 5-day treatment

Sequence of KRAS G12S (P01116 1-169 isoform P01116-2 G12S limits assumed): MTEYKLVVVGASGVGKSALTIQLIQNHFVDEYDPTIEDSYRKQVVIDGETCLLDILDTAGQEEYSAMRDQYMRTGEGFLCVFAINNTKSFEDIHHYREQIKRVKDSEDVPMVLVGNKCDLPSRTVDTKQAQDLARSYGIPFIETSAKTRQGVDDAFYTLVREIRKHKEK
Sequence of KRAS G12S (P62937 whole entry): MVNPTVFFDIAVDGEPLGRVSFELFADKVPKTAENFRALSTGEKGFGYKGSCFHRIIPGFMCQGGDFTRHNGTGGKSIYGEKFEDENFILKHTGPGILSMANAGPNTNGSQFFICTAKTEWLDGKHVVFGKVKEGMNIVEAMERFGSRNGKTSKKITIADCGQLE
Sequence of KRAS G12C (P01116 1-169 isoform P01116-2 G12C limits assumed): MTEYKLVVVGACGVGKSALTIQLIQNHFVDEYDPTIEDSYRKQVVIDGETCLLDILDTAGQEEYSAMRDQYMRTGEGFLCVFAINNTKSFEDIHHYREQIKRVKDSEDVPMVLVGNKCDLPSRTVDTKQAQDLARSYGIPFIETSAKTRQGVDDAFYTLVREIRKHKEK
Sequence of KRAS G12C (P62937 whole entry): as the sequence (P62937 whole entry) above
Sequence of KRAS G13D (P01116 1-169 isoform P01116-2 G13D limits assumed): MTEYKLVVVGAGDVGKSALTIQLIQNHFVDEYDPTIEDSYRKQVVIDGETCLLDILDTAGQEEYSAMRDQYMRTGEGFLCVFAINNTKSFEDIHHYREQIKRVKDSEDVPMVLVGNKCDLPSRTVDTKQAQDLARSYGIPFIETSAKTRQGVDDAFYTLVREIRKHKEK
Sequence of KRAS G13D (P62937 whole entry): as the sequence (P62937 whole entry) above
T1 sequence (P01111 whole entry G12C): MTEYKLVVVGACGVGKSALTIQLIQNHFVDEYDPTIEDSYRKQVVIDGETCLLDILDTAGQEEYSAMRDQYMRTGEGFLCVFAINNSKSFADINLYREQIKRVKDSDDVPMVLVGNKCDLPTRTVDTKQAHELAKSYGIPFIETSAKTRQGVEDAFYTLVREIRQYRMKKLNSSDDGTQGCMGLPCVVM
T1 sequence (P62937 whole entry): as the sequence (P62937 whole entry) above
Sequence of KRAS G12V (P01116 1-169 isoform P01116-2 G12V limits assumed): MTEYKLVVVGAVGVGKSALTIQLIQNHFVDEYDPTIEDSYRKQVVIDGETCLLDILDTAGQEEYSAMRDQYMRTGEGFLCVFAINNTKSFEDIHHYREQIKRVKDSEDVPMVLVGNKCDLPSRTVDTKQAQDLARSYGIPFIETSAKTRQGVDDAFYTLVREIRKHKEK
Sequence of KRAS G12V (P62937 whole entry, the tested form may be a part): as the sequence (P62937 whole entry) above
Sequence of KRAS G12D (P01116 1-169 isoform P01116-2 G12D limits assumed): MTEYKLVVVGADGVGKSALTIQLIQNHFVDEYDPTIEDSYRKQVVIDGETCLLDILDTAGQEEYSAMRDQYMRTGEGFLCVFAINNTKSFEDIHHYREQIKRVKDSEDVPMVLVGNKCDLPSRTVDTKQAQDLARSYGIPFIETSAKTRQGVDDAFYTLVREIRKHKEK
Sequence of KRAS G12D (P62937 whole entry): as the sequence (P62937 whole entry) above
Sequence of KRAS G13C (P01116 1-169 isoform P01116-2 G13C limits assumed): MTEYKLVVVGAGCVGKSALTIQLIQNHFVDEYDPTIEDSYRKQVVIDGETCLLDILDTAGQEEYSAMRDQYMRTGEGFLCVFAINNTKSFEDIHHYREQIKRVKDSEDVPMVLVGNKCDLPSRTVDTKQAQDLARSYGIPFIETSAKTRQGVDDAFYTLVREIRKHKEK
Sequence of KRAS G13C (P62937 whole entry): as the sequence (P62937 whole entry) above
Sequence of KRAS WT (P01116 1-169 isoform P01116-2 limits assumed): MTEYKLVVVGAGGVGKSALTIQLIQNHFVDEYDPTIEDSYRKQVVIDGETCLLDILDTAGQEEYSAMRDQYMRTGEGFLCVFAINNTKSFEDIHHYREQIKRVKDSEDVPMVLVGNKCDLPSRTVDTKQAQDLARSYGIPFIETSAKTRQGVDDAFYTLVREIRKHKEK
Sequence of KRAS WT (P62937 whole entry): as the sequence (P62937 whole entry) above

| SMILES | IC50 (KRAS G12V; [3]) [nM] | IC50 (KRAS WT; [4]) [nM] | IC50 (KRAS G12S; [5]) [nM] | IC50 (NRAS G12C; [6]) [nM] | IC50 (KRAS G13C; [7]) [nM] | IC50 (KRAS G12C; [9]) [nM] | EC50 (AsPC-1 (K-Ras G12D) [2]; [10]) [nM] | IC50 (KRAS G13D; [11]) [nM] | IC50 (KRAS G12D; [12]) [nM] | IC50 (AsPC-1 (K-Ras G12D) [1]; [13]) [nM] | EC50 (AsPC-1 (K-Ras G12D) [2]; [14]) [nM] | also measured |
| --- | --- | --- | --- | --- | --- | --- | --- | --- | --- | --- | --- | --- |
| CCn1c(-c2cnccc2COC)c2c3cc(ccc31)-c1cc(O)cc(c1)C[C@H](NC(=O)[C@H](C(C)C)N(C)C(=O)CN(C)C(=O)[C@@H]1[C@H](C)N1[S@@+]([O-])C(C)(C)C)C(=O)N1CCC[C@H](N1)C(=O)OCC(C)(C)C2 (stereo partly drawn) [Compound 54] | 100 to 1000 | 10 to 100 | 10 to 100 | 10 to 100 | 10 to 100 | 10 to 100 | < 5000 | 100 to 1000 | 100 to 1000 | – | – | IC50 (AsPC-1 (K-Ras G12D) [1]; [8]): 1000 to 10000 nM |
| CCn1c(-c2cccnc2[C@H](C)OC)c2c3cc(ccc31)-c1cc(O)cc(c1)C[C@H](NC(=O)[C@H](C(C)C)N(C)C(=O)[C@@H]1CN(C(=O)[C@H]3CN3)C[C@@H]1C)C(=O)N1CCC[C@H](N1)C(=O)OCC(C)(C)C2 [Compound 88] | 10 to 100 | 10 to 100 | 10 to 100 | < 10 | 10 to 100 | < 10 | – | 10 to 100 | 10 to 100 | 100 to 1000 | < 5000 | – |
| CCn1c(-c2cnccc2COC)c2c3cc(ccc31)-c1cc(O)cc(c1)C[C@H](NC(=O)[C@H](C(C)C)N(C)C(=O)[C@H]1CCN(C(=O)N3C[C@@H]3C(=O)OC)C1)C(=O)N1CCC[C@H](N1)C(=O)OCC(C)(C)C2 [Compound 94] | 100 to 1000 | 100 to 1000 | 100 to 1000 | 100 to 1000 | 10 to 100 | 10 to 100 | – | 100 to 1000 | 1000 to 10000 | > 10000 | < 5000 | – |
| CCn1c(-c2cnccc2COC)c2c3cc(ccc31)-c1cc(O)cc(c1)C[C@H](NC(=O)[C@H](C(C)C)N(C)C(=O)CN(C)C(=O)[C@@H]1[C@H](C3CC3)N1[S@@+]([O-])C(C)(C)C)C(=O)N1CCC[C@H](N1)C(=O)OCC(C)(C)C2 (stereo partly drawn) [Compound 101] | 100 to 1000 | 100 to 1000 | 100 to 1000 | 10 to 100 | 100 to 1000 | 10 to 100 | < 5000 | 100 to 1000 | 100 to 1000 | – | – | IC50 (AsPC-1 (K-Ras G12D) [1]; [8]): 1000 to 10000 nM |
| CCn1c(-c2cnccc2COC)c2c3cc(ccc31)-c1cc(O)cc(c1)C[C@H](NC(=O)[C@H](C(C)C)N(C)C(=O)CN(C)C(=O)[C@@H]1N[C@@H]1c1ccccc1)C(=O)N1CCC[C@H](N1)C(=O)OCC(C)(C)C2 [Compound 110] | – | – | – | – | – | – | < 5000 | – | – | – | – | IC50 (KRAS G12V): 100 to 1000 nM; IC50 (KRAS WT): 10 to 100 nM; IC50 (KRAS G12S): 10 to 100 nM; IC50 (NRAS G12C; [15]): 10 to 100 nM; IC50 (KRAS G13C): 100 to 1000 nM; IC50 (AsPC-1 (K-Ras G12D) [1]; [16]): 1000 to 10000 nM; IC50 (KRAS G12C): 10 to 100 nM; IC50 (KRAS G13D): 100 to 1000 nM; IC50 (KRAS G12D): 100 to 1000 nM |
| CCn1c(-c2cccnc2[C@H](C)OC)c2c3cc(ccc31)-c1cc(O)cc(c1)C[C@H](NC(=O)[C@H](C(C)C)N(C)C(=O)CN(C)C(=O)[C@H]1N[C@H]1C1CC1)C(=O)N1CCC[C@H](N1)C(=O)OCC(C)(C)C2 [Compound 134] | – | – | – | – | – | – | < 5000 | – | – | – | – | IC50 (KRAS G12V): 100 to 1000 nM; IC50 (KRAS WT): 10 to 100 nM; IC50 (KRAS G12S): 10 to 100 nM; IC50 (NRAS G12C; [15]): 10 to 100 nM; IC50 (KRAS G13C): 10 to 100 nM; IC50 (AsPC-1 (K-Ras G12D) [1]; [16]): 1000 to 10000 nM; IC50 (KRAS G12C): 10 to 100 nM; IC50 (KRAS G13D): 100 to 1000 nM; IC50 (KRAS G12D): 100 to 1000 nM |
| CCn1c(-c2cccnc2[C@H](C)OC)c2c3cc(ccc31)-c1cc(O)cc(c1)C[C@H](NC(=O)[C@H](C(C)C)N1CC[C@]3(CCN(C[C@@H]4CN4)C3)C1=O)C(=O)N1CCC[C@H](N1)C(=O)OCC(C)(C)C2 [Compound 176] | 100 to 1000 | 10 to 100 | 10 to 100 | 10 to 100 | 10 to 100 | 10 to 100 | – | 10 to 100 | 100 to 1000 | 1000 to 10000 | < 5000 | – |
| CCn1c(-c2cccnc2[C@H](C)OC)c2c3cc(ccc31)-c1cc(O)cc(c1)C[C@H](NC(=O)[C@H](C(C)C)N1CC[C@]3(CCCN(C(=O)[C@@H]4CN4)C3)C1=O)C(=O)N1CCC[C@H](N1)C(=O)OCC(C)(C)C2 [Compound 192] | 10 to 100 | 100 to 1000 | 100 to 1000 | < 10 | 100 to 1000 | < 10 | – | 1000 to 10000 | 100 to 1000 | 1000 to 10000 | < 5000 | – |
| CCn1c(-c2cccnc2[C@H](C)OC)c2c3cc(ccc31)-c1cc(O)cc(c1)C[C@H](NC(=O)[C@H](C(C)C)N1CC[C@@]3(CCN(C[C@H]4CN4)C3)C1=O)C(=O)N1CCC[C@H](N1)C(=O)OCC(C)(C)C2 [Compound 193] | 1000 to 10000 | 10 to 100 | 100 to 1000 | 10 to 100 | 10 to 100 | 10 to 100 | – | 10 to 100 | 100 to 1000 | 1000 to 10000 | < 5000 | – |
| CCn1c(-c2cccnc2[C@H](C)OC)c2c3cc(ccc31)-c1cc(O)cc(c1)C[C@H](NC(=O)[C@H](C(C)C)N1CCC3(CCN(C(=O)[C@H]4CN4)CC3)C1=O)C(=O)N1CCC[C@H](N1)C(=O)OCC(C)(C)C2 [Compound 196] | 100 to 1000 | 10 to 100 | 100 to 1000 | < 10 | 10 to 100 | < 10 | – | 10 to 100 | 100 to 1000 | 1000 to 10000 | < 5000 | – |
| CCn1c(-c2cccnc2[C@H](C)OC)c2c3cc(ccc31)-c1cc(O)cc(c1)C[C@H](NC(=O)[C@H](C(C)C)N1CC[C@@]3(CCCN(C(=O)[C@H]4CN4)C3)C1=O)C(=O)N1CCC[C@H](N1)C(=O)OCC(C)(C)C2 [Compound 199] | 100 to 1000 | 100 to 1000 | 100 to 1000 | 100 to 1000 | 100 to 1000 | 100 to 1000 | – | 100 to 1000 | 100 to 1000 | 1000 to 10000 | < 5000 | – |
| CCn1c(-c2cccnc2[C@H](C)OC)c2c3cc(ccc31)-c1cc(O)cc(c1)C[C@H](NC(=O)[C@H](C(C)C)N1CC[C@]3(CCCN(C(=O)[C@H]4CN4)C3)C1=O)C(=O)N1CCC[C@H](N1)C(=O)OCC(C)(C)C2 [Compound 200] | 10 to 100 | 100 to 1000 | 10 to 100 | < 10 | 10 to 100 | < 10 | – | 100 to 1000 | 100 to 1000 | 1000 to 10000 | < 5000 | – |
